# Experimental data reported in patent US20100184037A1, “DEATH ASSOCIATED PROTEIN KINASE 1 (DAPK1) AND USES THEREOF FOR THE TREATMENT OF CHRONIC LYMPOCYTIC LEUKEMIA” (THE OHIO STATE UNIVERSITY RESEARCH FOUNDATION, priority 2007, published 2010).
# Assays:
# DAPK1 promoter = assay: Bisulfite sequencing of the BS1 region of Decitabine-treated Raji cells; format: cell-based; conditions: Decitabine 0.5 μM, untreated 55%
# Experimental: FIG. 2F—Bisulfite treatment for untreated and 6 and 12 days 5-aza-2′-deoxycytidine treated (0.5 μM) Raji cells. Bisulfite treated DNA was amplified for the BS1 region (c.1-1509 to c.1-1262) comprising 30 CpGs and cloned. Sequencing was done for 7-10 clones for each sample. Each row represents a clone. The open circles indicate unmethylated CpG, and closed circles indicate methylated CpG. The overall methylation frequency is given in (%) on the right.
# One microgram of genomic DNA was treated with sodium […] according to published protocols (Herman et al., 1996). Regions BS1 and BS2 were amplified (primers are available upon request). The PCR product was purified using the Qiagen Gel Extraction kit (Qiagen, Chatsworth, Calif.) according to the manufacturer's protocol and subcloned using the TOPO TA-Cloning kit (Invitrogen) followed by sequencing of 8-10 clones for each sample using ABI big dye technology.
# DAPK1 = assay: Decitabine treatment of Raji cells, RT-PCR for DAPK1; format: cell-based; conditions: for 3, 6, 9, and 12 days
# Text: Next we treated Raji cells with 0.51.LM Decitabine for 3, 6, 9, and 12 days.
# Blood was obtained from patients with B-cell CLL through the CLL Research Consortium (CRC), from the Ohio State University and Uppsala University tissue banks. CLL patients from OSU and CRC consortium and healthy volunteers provided written informed consent using Institutional Review Board-approved protocols. Written consent for Uppsala samples was provided according to the declaration of Helsinki. Seven CD 19+ selected CLL samples were obtained by positive selection using magnetic beads conjugated to anti-CD19 (MACS, Miltenyi Biotec, Auburn Calif.). The resulting cells are at least 95% CD19 positive. All patients had immunophenotypically defined CLL as outlined by the modified 96 NCI criteria (Cheson et al., 1996) and for Uppsala samples, according to WHO classification. The CLL cell line WaC3CD5, described previously (Wendel-Hansen et al., 1994), Jurkat, Raji and lymphoblastoid cell lines were incubated (37° C. and 5% C02) in RPMI 1640 supplemented with 10% FBS (HyClone Laboratories, Logan, Utah), 2 mM L-glutamine, 100 U/ml penicillin, and 100 μg/ml streptomycin (all from Invitrogen, Carlsbad Calif.). […]
# Semi-quantitative RT-PCR was performed as described previously (Liu et al., 2006). […] The expression data was analyzed by comparative Ct method. […]
compound,measurement,setting,value
"Nc1ncn([C@H]2C[C@H](O)[C@@H](CO)O2)c(=O)n1 [Decitabine, 5-aza-2′-deoxycytidine]","DNA methylation of CpG dinucleotides, BS1 region",DAPK1 promoter; day 6 (70/240),29%
same,"DNA methylation of CpG dinucleotides, BS1 region",DAPK1 promoter; day 12 (68/270),25%
same,DAPK1 expression (RT-PCR),DAPK1,gradual up-regulation of DAPK1 expression
